Experimental data reported in ChEMBL document CHEMBL5465560, “Selectivity Literature for EUbOPEN Chemogenomic Library” (2024).
pIC50, pKd: −log10 of the molar value.

What was measured:
D(2) dopamine receptor = D(2) dopamine receptor (Homo sapiens, UniProt P14416); assay: Selectivity interaction (Panel of non-epigenetic targets (kinases, GPCRs, ion channels, and transporters, Eurofins) ) EUB0000271b DRD2; conditions: at 1 µM
[1] = biological target: T1, TGF-beta receptor type-1 (Homo sapiens) (UniProt P36897); assay: Selectivity interaction (KinomeScan (DiscoverX)) EUB0001619a TGFBR1; conditions: at 1 µM
T1 sequence (whole entry): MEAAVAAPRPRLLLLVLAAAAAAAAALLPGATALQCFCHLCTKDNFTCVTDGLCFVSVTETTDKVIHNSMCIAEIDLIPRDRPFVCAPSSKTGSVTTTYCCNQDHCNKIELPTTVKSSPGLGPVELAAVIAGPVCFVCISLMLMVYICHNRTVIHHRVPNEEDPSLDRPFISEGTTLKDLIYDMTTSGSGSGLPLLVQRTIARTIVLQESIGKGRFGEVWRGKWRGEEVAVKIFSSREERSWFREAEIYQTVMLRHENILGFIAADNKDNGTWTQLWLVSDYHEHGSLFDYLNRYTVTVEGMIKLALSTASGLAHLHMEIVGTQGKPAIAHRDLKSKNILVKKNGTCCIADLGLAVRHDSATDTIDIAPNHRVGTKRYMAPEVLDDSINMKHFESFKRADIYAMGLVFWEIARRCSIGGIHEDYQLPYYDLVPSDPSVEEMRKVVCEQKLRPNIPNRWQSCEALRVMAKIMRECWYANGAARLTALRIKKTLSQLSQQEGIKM

[2] = biological target: Vascular endothelial growth factor receptor 2 (Homo sapiens, UniProt P35968); conditions: at 10 µM
Vascular endothelial growth factor receptor 2, sequence (P35968 whole entry): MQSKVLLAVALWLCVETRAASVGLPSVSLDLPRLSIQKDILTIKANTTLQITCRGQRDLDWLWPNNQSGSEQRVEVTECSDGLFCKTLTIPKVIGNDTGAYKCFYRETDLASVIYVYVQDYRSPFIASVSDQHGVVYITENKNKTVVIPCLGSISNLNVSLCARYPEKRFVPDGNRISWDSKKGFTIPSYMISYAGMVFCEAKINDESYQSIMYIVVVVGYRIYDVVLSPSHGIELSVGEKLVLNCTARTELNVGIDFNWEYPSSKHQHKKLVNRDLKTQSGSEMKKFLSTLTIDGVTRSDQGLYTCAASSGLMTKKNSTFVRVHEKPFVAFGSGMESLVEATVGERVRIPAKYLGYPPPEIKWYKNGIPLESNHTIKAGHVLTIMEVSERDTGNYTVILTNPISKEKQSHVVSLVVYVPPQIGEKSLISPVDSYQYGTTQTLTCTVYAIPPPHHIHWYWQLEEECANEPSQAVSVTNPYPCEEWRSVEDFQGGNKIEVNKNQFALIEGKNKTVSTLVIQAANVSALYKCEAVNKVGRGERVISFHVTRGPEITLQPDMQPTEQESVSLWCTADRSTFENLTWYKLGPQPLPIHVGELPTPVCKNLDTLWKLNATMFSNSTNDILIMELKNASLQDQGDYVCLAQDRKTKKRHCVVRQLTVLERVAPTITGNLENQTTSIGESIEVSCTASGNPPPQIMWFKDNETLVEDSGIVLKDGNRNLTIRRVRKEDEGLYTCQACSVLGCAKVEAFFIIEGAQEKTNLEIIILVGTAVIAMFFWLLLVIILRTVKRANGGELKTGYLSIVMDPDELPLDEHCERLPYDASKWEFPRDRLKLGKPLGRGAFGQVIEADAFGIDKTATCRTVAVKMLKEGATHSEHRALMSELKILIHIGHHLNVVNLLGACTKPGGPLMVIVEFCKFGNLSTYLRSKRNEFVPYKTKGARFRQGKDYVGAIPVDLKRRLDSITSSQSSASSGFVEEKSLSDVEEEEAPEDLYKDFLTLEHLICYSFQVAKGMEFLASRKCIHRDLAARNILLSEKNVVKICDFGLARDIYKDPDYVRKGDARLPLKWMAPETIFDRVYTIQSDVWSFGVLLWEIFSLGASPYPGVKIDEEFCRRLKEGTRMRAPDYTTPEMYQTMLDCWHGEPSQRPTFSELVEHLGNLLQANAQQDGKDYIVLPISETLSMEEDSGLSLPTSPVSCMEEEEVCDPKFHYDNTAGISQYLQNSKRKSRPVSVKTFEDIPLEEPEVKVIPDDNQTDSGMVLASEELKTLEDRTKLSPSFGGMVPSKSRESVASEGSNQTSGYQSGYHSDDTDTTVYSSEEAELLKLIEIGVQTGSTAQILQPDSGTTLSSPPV

[3] = biological target: Cyclin-dependent kinase 13 (Homo sapiens, UniProt Q14004); assay: Selectivity interaction (KinomeScan (DiscoverX)) EUB0000229b CDK13; conditions: at 10 µM
[4] = biological target: Dual specificity mitogen-activated protein kinase kinase 1 (Homo sapiens, UniProt Q02750); assay: Selectivity interaction (KinomeScan (DiscoverX)) EUB0001049a MAP2K1; conditions: at 1 µM
Dual specificity mitogen-activated protein kinase kinase 1, sequence (Q02750 whole entry): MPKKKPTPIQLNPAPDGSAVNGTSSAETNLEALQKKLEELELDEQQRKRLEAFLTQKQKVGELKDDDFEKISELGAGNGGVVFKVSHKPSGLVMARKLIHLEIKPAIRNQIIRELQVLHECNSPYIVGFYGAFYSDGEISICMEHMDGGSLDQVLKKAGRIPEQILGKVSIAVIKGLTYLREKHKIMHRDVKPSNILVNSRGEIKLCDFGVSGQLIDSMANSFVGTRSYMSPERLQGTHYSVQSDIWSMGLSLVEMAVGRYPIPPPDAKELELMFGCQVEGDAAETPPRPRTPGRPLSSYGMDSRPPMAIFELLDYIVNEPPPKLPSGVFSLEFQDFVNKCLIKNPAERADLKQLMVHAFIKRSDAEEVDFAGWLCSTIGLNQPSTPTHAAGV

[5] = biological target: Ribosomal protein S6 kinase alpha-2 (Homo sapiens) (UniProt Q15349); assay: Selectivity interaction (KinomeScan (DiscoverX)) EUB0001049a RPS6KA2; conditions: at 1 µM
[6] = biological target: Epidermal growth factor receptor (Homo sapiens, UniProt P00533); assay: Selectivity interaction (Kinase panel (33PanQinase(R) Activity Assay)) EUB0000877a EGFR
[7] = biological target: Serine/threonine-protein kinase 32A (Homo sapiens) (UniProt Q8WU08); assay: Selectivity interaction (KinomeScan (DiscoverX)) EUB0000666a STK32A; conditions: at 10 µM
Serine/threonine-protein kinase 32A (Homo sapiens), sequence (Q8WU08 whole entry): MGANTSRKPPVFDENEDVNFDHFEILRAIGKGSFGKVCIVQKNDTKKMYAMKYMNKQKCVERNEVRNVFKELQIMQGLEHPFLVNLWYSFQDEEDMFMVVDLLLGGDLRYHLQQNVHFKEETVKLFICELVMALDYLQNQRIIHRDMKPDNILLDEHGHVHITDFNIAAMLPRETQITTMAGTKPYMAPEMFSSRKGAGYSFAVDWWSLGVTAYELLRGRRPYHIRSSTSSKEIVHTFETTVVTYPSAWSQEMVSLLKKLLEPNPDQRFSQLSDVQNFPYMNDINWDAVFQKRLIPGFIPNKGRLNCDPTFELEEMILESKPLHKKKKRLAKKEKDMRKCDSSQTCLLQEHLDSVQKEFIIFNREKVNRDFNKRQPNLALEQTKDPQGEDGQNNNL

[8] = biological target: Cyclin-dependent kinase 7 (Homo sapiens, UniProt P50613); assay: Selectivity interaction (KINOMEscan (DiscoverX, competition-binding assay)) EUB0001868a CDK7
Cyclin-dependent kinase 7, sequence (P50613 whole entry): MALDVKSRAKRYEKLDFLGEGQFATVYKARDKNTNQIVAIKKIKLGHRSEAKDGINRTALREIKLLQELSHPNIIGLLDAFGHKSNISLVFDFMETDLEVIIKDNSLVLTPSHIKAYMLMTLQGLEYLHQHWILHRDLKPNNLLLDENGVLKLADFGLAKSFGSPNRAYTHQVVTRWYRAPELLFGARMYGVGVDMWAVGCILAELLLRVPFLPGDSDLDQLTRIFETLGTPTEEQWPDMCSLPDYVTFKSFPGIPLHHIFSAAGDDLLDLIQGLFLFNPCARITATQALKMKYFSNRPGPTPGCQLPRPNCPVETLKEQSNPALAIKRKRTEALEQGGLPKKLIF

[9] = biological target: Mitogen-activated protein kinase kinase kinase 14 (Homo sapiens) (UniProt Q99558); assay: Selectivity interaction (LanthaScreen Eu Kinase Binding Assay) EUB0001632a MAP3K14; conditions: at 10 µM
Mitogen-activated protein kinase kinase kinase 14 (Homo sapiens), sequence (Q99558 whole entry, looked up): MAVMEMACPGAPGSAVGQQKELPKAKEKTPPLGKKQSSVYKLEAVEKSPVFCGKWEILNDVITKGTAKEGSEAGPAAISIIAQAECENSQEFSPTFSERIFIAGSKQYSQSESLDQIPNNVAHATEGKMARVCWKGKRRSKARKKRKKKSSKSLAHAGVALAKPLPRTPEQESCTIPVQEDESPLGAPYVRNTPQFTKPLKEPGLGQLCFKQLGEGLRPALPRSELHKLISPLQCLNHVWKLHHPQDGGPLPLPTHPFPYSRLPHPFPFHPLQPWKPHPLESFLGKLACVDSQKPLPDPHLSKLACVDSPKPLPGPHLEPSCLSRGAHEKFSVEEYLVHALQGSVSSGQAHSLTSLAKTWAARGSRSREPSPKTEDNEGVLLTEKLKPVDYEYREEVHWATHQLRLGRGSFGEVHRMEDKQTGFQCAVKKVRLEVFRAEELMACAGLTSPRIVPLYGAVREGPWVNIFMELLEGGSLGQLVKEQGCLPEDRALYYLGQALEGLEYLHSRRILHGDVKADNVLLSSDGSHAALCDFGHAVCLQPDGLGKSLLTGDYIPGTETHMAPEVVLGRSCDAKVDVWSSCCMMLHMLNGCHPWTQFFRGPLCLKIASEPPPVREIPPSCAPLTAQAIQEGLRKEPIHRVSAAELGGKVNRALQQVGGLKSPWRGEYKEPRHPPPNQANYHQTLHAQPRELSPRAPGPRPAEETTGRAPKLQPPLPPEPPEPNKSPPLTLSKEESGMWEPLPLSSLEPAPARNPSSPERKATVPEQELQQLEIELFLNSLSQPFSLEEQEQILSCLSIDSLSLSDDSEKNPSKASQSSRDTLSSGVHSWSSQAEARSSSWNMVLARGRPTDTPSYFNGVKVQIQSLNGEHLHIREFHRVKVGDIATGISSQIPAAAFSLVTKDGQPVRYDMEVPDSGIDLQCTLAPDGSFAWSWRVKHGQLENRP

[10] = biological target: Serine/threonine-protein kinase PLK1 (Homo sapiens, UniProt P53350); assay: Selectivity interaction (Kinase panel (Z-LYTE Assay)) EUB0001632a PLK1; conditions: at 10 µM
Serine/threonine-protein kinase PLK1, sequence (P53350 whole entry): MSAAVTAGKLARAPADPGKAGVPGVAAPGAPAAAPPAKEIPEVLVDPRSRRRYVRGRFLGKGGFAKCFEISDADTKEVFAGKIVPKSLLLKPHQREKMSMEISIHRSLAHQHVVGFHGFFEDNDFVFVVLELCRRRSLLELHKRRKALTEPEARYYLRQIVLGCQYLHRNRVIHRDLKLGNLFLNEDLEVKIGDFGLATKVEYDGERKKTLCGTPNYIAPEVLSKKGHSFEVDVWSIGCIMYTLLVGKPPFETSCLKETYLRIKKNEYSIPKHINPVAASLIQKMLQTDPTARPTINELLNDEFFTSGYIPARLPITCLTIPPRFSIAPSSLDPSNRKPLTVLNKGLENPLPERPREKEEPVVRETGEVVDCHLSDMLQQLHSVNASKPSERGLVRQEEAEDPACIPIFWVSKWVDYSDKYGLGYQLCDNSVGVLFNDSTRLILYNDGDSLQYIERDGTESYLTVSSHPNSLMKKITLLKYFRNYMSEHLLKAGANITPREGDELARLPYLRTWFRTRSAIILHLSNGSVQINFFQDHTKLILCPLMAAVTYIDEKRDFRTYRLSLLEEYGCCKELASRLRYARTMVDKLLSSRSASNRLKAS

[11] = biological target: Receptor-interacting serine/threonine-protein kinase 2 (Homo sapiens, UniProt O43353); assay: Selectivity interaction (KinomeScan (DiscoverX)) EUB0000695a RIPK2; conditions: at 100 nM
Receptor-interacting serine/threonine-protein kinase 2, sequence (O43353 whole entry): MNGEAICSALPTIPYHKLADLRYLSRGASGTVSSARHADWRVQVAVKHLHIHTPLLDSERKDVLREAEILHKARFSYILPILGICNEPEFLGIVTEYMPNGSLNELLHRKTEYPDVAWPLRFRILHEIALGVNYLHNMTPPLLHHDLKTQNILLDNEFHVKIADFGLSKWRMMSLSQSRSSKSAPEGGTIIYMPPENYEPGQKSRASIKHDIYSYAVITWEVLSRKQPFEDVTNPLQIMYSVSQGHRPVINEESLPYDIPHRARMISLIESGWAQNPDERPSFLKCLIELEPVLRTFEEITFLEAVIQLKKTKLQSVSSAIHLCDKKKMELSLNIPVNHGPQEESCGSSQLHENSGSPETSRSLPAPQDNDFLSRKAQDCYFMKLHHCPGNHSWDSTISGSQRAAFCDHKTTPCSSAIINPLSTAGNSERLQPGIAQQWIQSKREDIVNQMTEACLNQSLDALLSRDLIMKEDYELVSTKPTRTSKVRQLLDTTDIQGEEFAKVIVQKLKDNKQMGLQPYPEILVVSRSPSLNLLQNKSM

[12] = biological target: T2, Serine/threonine-protein kinase TNNI3K (Homo sapiens) (UniProt Q59H18); assay: Selectivity interaction (KinomeScan (DiscoverX)) EUB0000695a TNNI3K; conditions: at 100 nM
T2 sequence (whole entry): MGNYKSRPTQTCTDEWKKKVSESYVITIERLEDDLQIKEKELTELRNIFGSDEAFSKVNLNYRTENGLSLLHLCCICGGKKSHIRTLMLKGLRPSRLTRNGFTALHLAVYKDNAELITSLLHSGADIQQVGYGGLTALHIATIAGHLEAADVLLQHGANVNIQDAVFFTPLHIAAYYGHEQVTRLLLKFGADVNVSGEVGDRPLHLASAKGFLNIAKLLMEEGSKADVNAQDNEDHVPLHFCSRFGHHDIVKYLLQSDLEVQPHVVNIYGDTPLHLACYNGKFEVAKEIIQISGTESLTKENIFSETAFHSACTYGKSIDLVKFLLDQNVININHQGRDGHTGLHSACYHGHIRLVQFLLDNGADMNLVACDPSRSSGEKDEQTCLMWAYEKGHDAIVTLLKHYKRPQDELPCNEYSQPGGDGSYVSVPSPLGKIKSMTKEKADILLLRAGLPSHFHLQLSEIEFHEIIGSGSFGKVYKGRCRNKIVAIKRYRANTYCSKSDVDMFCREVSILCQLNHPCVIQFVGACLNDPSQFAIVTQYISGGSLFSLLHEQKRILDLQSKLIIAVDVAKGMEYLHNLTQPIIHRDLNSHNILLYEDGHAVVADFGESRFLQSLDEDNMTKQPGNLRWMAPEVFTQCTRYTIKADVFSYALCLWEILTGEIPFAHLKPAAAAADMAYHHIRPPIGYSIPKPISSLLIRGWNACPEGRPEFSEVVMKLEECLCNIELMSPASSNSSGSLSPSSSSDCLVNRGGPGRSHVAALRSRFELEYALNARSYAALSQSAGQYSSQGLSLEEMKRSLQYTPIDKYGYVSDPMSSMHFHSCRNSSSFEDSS

D(2) dopamine receptor, sequence (P14416 whole entry): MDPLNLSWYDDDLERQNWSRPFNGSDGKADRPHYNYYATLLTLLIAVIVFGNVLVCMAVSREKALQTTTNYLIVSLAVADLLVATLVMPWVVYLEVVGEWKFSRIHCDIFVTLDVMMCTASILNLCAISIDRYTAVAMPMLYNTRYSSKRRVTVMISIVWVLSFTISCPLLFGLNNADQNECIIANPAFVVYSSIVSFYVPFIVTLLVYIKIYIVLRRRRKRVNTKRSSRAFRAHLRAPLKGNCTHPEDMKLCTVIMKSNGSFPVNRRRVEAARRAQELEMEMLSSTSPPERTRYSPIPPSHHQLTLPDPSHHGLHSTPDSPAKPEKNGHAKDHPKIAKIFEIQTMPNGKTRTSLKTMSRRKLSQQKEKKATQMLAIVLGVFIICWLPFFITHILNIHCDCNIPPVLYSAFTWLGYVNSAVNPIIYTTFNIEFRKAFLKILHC

SMILES: Cc1cc(C)cc([C@@H]2c3cc(C)ccc3NC(=O)CN2C(=O)c2ccc(Br)s2)c1
- % of inhibition (D(2) dopamine receptor): -1%

SMILES: N#Cc1cccc(-c2c[nH]c3ncnc(N4CCOCC4)c23)c1
- % of control [1]: 79%

SMILES: Cc1cc([C@@H](C)Nc2ccccc2C(=O)O)c2nc(N3CCOCC3)cc(=O)n2c1 [AZD-6482]
- % of control [2]: 100%

SMILES: COc1cc(N(C)c2ccnc3ccc(C(F)(F)F)cc23)cc(OC)c1OC
- % binding [3]: 88%

SMILES: COc1cc(Nc2nc(C)cc(-c3cnn4nc(OC)ccc34)n2)cc(C(F)(F)F)c1
- % of control [4]: 80%
- % of control [5]: 90%

SMILES: CCC(=O)N1CC[C@H](Nc2ncnc3c2CN(c2cnc(OC)c(C(F)(F)F)c2)CC3)C1 [LENIOLISIB]
- pIC50 [6]: < 5.00

SMILES: O=C(NOC[C@H](O)CO)c1ccc(F)c(F)c1Nc1ccc(I)cc1F
- % of control [7]: 80%

SMILES: Cc1cc(-c2ccnc(Nc3cnn(C)c3)n2)ccc1CNC(=O)N1CC(OC(C)C)C1
- pKd [8]: 6.06

SMILES: Cn1cc(-n2cnc3c(NCc4nc5cc(Cl)c(Cl)cc5[nH]4)nc(N4CCOCC4)nc32)cn1
- % of inhibition [9]: -10.4%
- % of control [10]: 1.25%

SMILES: Cc1cc(F)c(C(=O)Nc2cccc(-c3nncn3C(C)C)n2)cc1-n1cnc(C2CC2)c1
- % of control [11]: 100%
- % of control [12]: 100%
